# Test results as given in patent US20240352429A1, “AGENT FOR INDUCING VIRAL VECTOR PRODUCTION” (priority 2021, published 2024).
# Assays:
# [1] = test system: suspension HEK293 cells (FreeStyle 293F cell); type: cell-based; details: for titer of adeno-associated virus vector in the cell-derived sample, various cell growth inhibitors A: nocodazole 500 nM, benzimidazoles 50 μM, 5 μM, 500 nM, vinblastine sulfate, colcemid, taxanes 5 μM, 100 nM, FIG. 3 to 7
# suspension HEK293 cells [2] = assay: Titer of adeno-associated virus vector (AAV2) produced with a bioreactor (400 mL culture medium), quantitative PCR; type: cell-based; details: nocodazole final 500 nM in DMSO, added 4 hours after introduction of the nucleic acid; vs w/o; FIG. 9
# Description: On the day of introduction of a nucleic acid into the cells, the suspension HEK293 cells were seeded in a bioreactor (animal cell culture apparatus BCP, volume 1 L, ABLE Corporation), with the number of cells being adjusted to 1×10^6 cells/mL (in an amount of culture medium of 400 mL).
# pRC2-mi342 (1 μg/μL, 240 μL, packaging plasmid DNA), pAAV-Venus (1 μg/μL, 80 μL, vector plasmid DNA), pHelper (1 μg/μL, 160 μL, helper plasmid DNA), and PEI MAX (1 μg/μL, 960 μL, Polysciences Inc.) as polyethylenimine (PEI) were mixed and left to stand in Opti-MEM (Thermo Fisher Scientific K.K.) for production of a double-stranded circular plasmid DNA-PEI mixed solution.
# Nucleic acids were introduced into the cells by adding the double-stranded circular plasmid DNA-PEI mixed solution to the cell culture medium. Thereafter, AAV2 was produced by culturing at 37° C. in the presence of 8% CO2 for 4 days.
# Four days after introduction of the nucleic acid into the cells, the supernatant and the cells were separated, PEG8000 (Sigma-Aldrich Co. LLC) was added to the supernatant obtained, and the adeno-associated virus vector was concentrated. Triton X-100 (Sigma-Aldrich Co. LLC) was added to the residual for cell lysis, and thereafter KANEKA Endonuclease (KANEKA CORPORATION) was added for degradation of DNA. […]
# Quantification of the adeno-associated virus was performed by the same method as in Example 1.
# suspension HEK293 cells [3] = assay: Titer of adeno-associated virus vector (AAV2) by quantitative PCR after introducing linear covalently closed DNA (LCC DNA) with PEI; type: cell-based; details: for titer of adeno-associated virus vector from the cell-derived sample, LCC DNA: DMSO as solubilizer, nocodazole 500 nM added 1 minute after introduction, oxibendazole 50 μM, 5 μM, 500 nM, 50 nM, FIG. 11
# Description: On the day of introduction of the nucleic acid into the cells, the suspension HEK293 cells were seeded in a 50-mL centrifuge tube equipped with a filter cap, with the number of cells being adjusted to 1×10^6 cells/mL (an amount of culture medium of 5 mL).
# In the condition where a linear covalently closed DNA was used as the nucleic acid to be introduced into the cells, RC2_LCC_DNA (1 μg/μL, 4 μL, packaging plasmid DNA), Venus_LCC_DNA (1 μg/μL, 1 μL, vector plasmid DNA), Helper_LCC_DNA (1 μg/μL, 1 μL, helper plasmid DNA), and PEI MAX (1 μg/μL, 12 μL, Polysciences Inc.) as polyethylenimine (PEI) were mixed and left to stand in Opti-MEM (Thermo Fisher Scientific K.K.) for production of a LCC DNA-PEI mixed solution. Nucleic acids were introduced into the cells by adding the LCC DNA-PEI mixed solution to the cell culture medium. Thereafter, AAV2 was produced by culturing at 37° C. in the presence of 8% CO2 for 4 days.
# Extraction and quantification of the adeno-associated virus vector were carried out by the same methods as in Example 1.
# When the cell growth inhibitor A was oxibendazole (Tokyo Chemical Industry Co., Ltd.), DMSO was used as a solubilizer, and oxibendazole was added to the cell culture medium so that the final concentrations of oxibendazole were four kinds of concentrations, i.e., 50 μM, 5 μM, 500 nM, and 50 nM.
# virus-like particles = details: known from Non Patent Literature 1; cited from earlier work
# [4] = added 4 hours after introduction of the nucleic acid, DMSO as solubilizer
compound,measurement,setting,value
CC[C@]1(O)C[C@@H]2CN(CCc3c([nH]c4ccccc34)[C@@](C(=O)OC)(c3cc4c(cc3OC)N(C)[C@H]3[C@@](O)(C(=O)OC)[C@H](OC(C)=O)[C@]5(CC)C=CCN6CC[C@]43[C@@H]65)C2)C1 [vinblastine],"titer of adeno-associated virus vector in the cell-derived sample, various cell growth inhibitors A",[1]; [4],improved
CCCSc1ccc2nc(NC(=O)OC)[nH]c2c1 [albendazole],"titer of adeno-associated virus vector in the cell-derived sample, various cell growth inhibitors A",[1]; [4],improved
COC(=O)Nc1nc2ccc(C(=O)c3cccs3)cc2[nH]1 [nocodazole],total titer of adeno-associated virus vector (cell-derived and supernatant-derived sample) at bioreactor scale,suspension HEK293 cells [2],reproduced
same,"titer of adeno-associated virus vector from the cell-derived sample, LCC DNA",suspension HEK293 cells [3],increased
same,"increase of the titer of adeno-associated virus vector (cell-derived sample), linear covalently closed DNA","suspension HEK293 cells [3]; nocodazole 500 nM in DMSO, added 1 minute after introduction of the nucleic acid, vs w/o, FIG. 10",fourteenfold
same,"titer of adeno-associated virus vector in the cell-derived sample, various cell growth inhibitors A",[1]; [4],improved
same,total titer of adeno-associated virus vector (cell-derived sample and supernatant-derived sample),"[1]; final concentration from 250 nM to 2 μM, DMSO as solubilizer, added 4 hours after introduction of the nucleic acid, 4 days culture, vs 0 nM (DMSO only), FIG. 1",improved
same,effect of improving the titer of adeno-associated virus vector (cell-derived sample) compared with sodium valproate,"[1]; nocodazole 500 nM in DMSO vs sodium valproate (VPA) 1, 2.5, 5, 10 or 12.5 mM in water, FIG. 8",larger
same,"increase of the titer of adeno-associated virus vector (cell-derived sample), double-stranded circular plasmid DNA","[1]; nocodazole 500 nM in DMSO, added 1 minute after introduction of the nucleic acid, pDNA, vs w/o, FIG. 10",eightfold
same,"titer of adeno-associated virus vector in the cell-derived sample, influence of timing of addition","[1]; nocodazole final 500 nM in DMSO, added between 24 hours before and 4 hours after introduction of the nucleic acid, vs DMSO only, FIG. 2",improved
same,productivity of virus-like particles,virus-like particles,reduces
COC(=O)Nc1nc2ccc(Sc3ccccc3)cc2[nH]1 [fenbendazole],"titer of adeno-associated virus vector in the cell-derived sample, various cell growth inhibitors A",[1]; [4],improved
CC(=O)O[C@@]12CO[C@@H]1C[C@H](O)[C@@]1(C)C(=O)[C@H](O)C3=C(C)[C@@H](OC(=O)[C@H](O)[C@@H](NC(=O)OC(C)(C)C)c4ccccc4)C[C@@](O)([C@@H](OC(=O)c4ccccc4)[C@H]21)C3(C)C [docetaxel],"titer of adeno-associated virus vector in the cell-derived sample, various cell growth inhibitors A",[1]; [4],improved
CCCOc1ccc2nc(NC(=O)OC)[nH]c2c1 [oxibendazole],"titer of adeno-associated virus vector from the cell-derived sample, LCC DNA",suspension HEK293 cells [3],increased
CC(=O)O[C@H]1C(=O)[C@@]2(C)[C@H]([C@H](OC(=O)c3ccccc3)[C@]3(O)C[C@H](OC(=O)[C@H](O)[C@@H](NC(=O)c4ccccc4)c4ccccc4)C(C)=C1C3(C)C)[C@]1(OC(C)=O)CO[C@@H]1C[C@@H]2O [paclitaxel],"titer of adeno-associated virus vector in the cell-derived sample, various cell growth inhibitors A",[1]; [4],improved
